Reference: US4677069A, “Clam derived proteinases” (priority 1984, dated 1987)
Where a name gives a salt, the structure may show the parent alone. *1 amine or outer side, *2 acyl side, *3 side chain or, on linkers, in order; H or OH if unused. Where a SMILES comes first, the peptide text is derived from it. [ ]: non-standard residue; d: D form. The star is where a group is joined. Sta = CC(C)C[C@H](N)[C@@H](O)CC(=O)O; Isovaleryl = CC(C)CC(=O)*; CO = O=C([*:1])[*:2]

B1: Gastricin: carboxyl proteinase, stomach (protein, UniProt P20142 60-388, looked up)
Gastricsin: SVTYEPMAYMDAAYFGEISIGTPPQNFLVLFDTGSSNLWVPSVYCQSQACTSHSRFNPSESSTYSTNGQTFSLQYGSGSLTGFFGYDTLTVQSIQVPNQEFGLSENEPGTNFVYAQFDGIMGLAYPALSVDEATTAMQGMVQEGALTSPVFSVYLSNQQGSSGGAVVFGGVDSSLYTGQIYWAPVTQELYWQIGIEEFLIGGQASGWCSEGCQAIVDTGTSLLTVPQQYMSALLQATGAQEDEYGQFLVNCNSIQNLPSLTFIINGVEFPLPPSSYILSNNGYCTVGVEPTYLSSQNGQPLWILGDVFLRSYYSVYDLGNNRVGFATAA

Assays:
[1] = cited from earlier work; for Optimum pH: Table 7, literature
[2] = system: PIII; test: Inhibitor effect on proteolytic activity of PIII; format: biochemical, surf clam, Spisula solidissima
Procedure: The effect of inhibitors on proteolytic activity was determined by preincubating a mixture of inhibitor stock solution (0.05 ml), 0.2M citrate-phosphate buffer at pH 2.8 (1.7 ml) and enzyme solution (0.25 ml) for 10 min at room temperature before the addition of substrate. All inhibitors were from Sigma Co. (St. Louis, MO). The stock solutions were prepared by dissolving the inhibitors either in water or dimethyl sulfoxide (DMSO) as following:
(§1) Water--Leupeptin hemisulfate (60 ug/ml), Antipain (60 ug/ml), Poly-L-lysine(60 mg/ml), soybean trypsin inhibitor (60 mg/ml), ovomucoid trypsin inhibitor (60 mg/mL), Tosyl-lysine chloromethyl ketone (TLCK, 60 mM) and iodoacetamide (60 mM).
(§2) DMSO--Pepstatin (60 ug/ml), Tosyl-phenylalanine chloromethyl ketone (TPCK, 60 mM), Phenylmethanesulphonylfluoride (PMSF, 60 mM), and Diazoacetylnorleucine methyl ester (DNME, 60 mM).

[3] = system: PI & II; test: Inhibitor effect on proteolytic activity of PI & II; format: biochemical, surf clam, Spisula solidissima
Procedure: All inhibitors were from Sigma Co. (St. Louis, MO). The stock solutions were prepared by dissolving the inhibitors either in water or dimethyl sulfoxide (DMSO) as following:
as §1, §2

[4] = system: PIII; test: Heavy metal effect on proteolytic activity of PIII; format: biochemical, surf clam, Spisula solidissima; conditions: for PIII % Retention / PIII Activity (HU/ml): metal ions 0.5 mM, pH 2.8; for PIII Activity (HU/ml): control 258.7; for effect of metal ion on PIII: general assay procedure
Procedure: (§3) The effect of heavy metals on proteolytic activity was determined by preincubating a mixture of 5 mM heavy metal stock solution (0.3 ml), 0.2M citrate-phosphate buffer at pH 2.8 (1.6 ml) and enzyme solution (0.1 ml) at room temperature for 10 min before the addition of substrate. All stock solutions of metals were made from chloride salts, except that silver was prepared from the nitrate salt.

[5] = system: PI & II; test: Heavy metal effect on proteolytic activity of PI & II; format: biochemical, surf clam, Spisula solidissima; conditions: for PI & II % Retention / PI & II Activity (HU/ml): metal ions 0.5 mM, pH 2.8; for PI & II Activity (HU/ml): control 214.7
Procedure: as §3

[6] = system: casein; test: Relative ratio of clotting to proteolytic activity, casein; format: biochemical; conditions: 30° C., pH 6.2 of milk clotting assay, calf rennet = 1.00
Procedure: (§4) The clotting activity of milk coagulants was determined according to the method of Berridge, with modifications (1952, The Analyst, 77: 57). To 0.05 ml (unless otherwise mentioned) of milk coagulant placed in a 25-ml test tube was added 10 ml of tempered substrate solution. The substrate solution was 10% reconstituted skim milk powder containing 10 mM CaCl2. The pH of this substrate solution was approximately 6.2. Where indicated, the pH of the substrate solution was adjusted with 0.5 N NaOH or HCl while agitating. The mixture of coagulant and substrate was then incubated at 30° C. water bath unless specifically indicated. Near the expected clotting time, which was determined by a preliminary test, the test tube was tilted ~60° at an interval of 5 seconds. The moment of the first flake appearance of the liquid flowing down the tube was recorded as milk clotting time.
(§5) Milk coagulants were assayed for proteolytic activity according to the method described in Example 1.
(§6) The ratio of milk clotting activity to proteolytic activity against hemoglobin is often used to assess the suitability of enzymes as rennet substitute (Green, 1972, supra). Clam rennet had considerably lower ratio of clotting to […] activity at optimum pH of each individual enzyme. […]

[7] = system: Hemoglobin; test: Relative ratio of clotting to proteolytic activity, hemoglobin; format: biochemical; conditions: 30° C., optimum pH of each enzyme (in parentheses), calf rennet = 1.00
Procedure: as §4, §5, §6

[8] = Milk clotting time determination; format: biochemical
Procedure: as §4

[9] = system: Hemoglobin; conditions: pH 2.0, 37° C., Sigma lot; cited from earlier work
[10] = system: P2.2 enzyme; test: Stabilization of P2.2 activity with reducing and chelating agents; conditions: EDTA or cysteine alone
[11] = 1 ug/ml, pH 2.8, 10 min preincubation

| Molecule | Optimum pH [1] | PIII % Retention [4] | PIII Activity (HU/ml) [4] | PI & II % Retention [5] | PI & II Activity (HU/ml) [5] | also measured |
| --- | --- | --- | --- | --- | --- | --- |
| Renin | 5.5-8.0 | – | – | – | – | – |
| O=S(=O)(F)Cc1ccccc1 [PMSF, phenylmethanesulphonylfluoride] | – | – | – | – | – | effect of inhibitor on PIII [2]: inhibited; % Residual activity PIII, final conc. 1 mM ([2]; pH 2.8, 10 min preincubation): 53.5%; % Residual activity PI & II, final conc. 1 mM ([3]; pH 2.8, 10 min preincubation): 102.2% |
| CC(C)[C@H](NC(=O)[C@H](CCCNC(=N)N)NC(=O)N[C@@H](Cc1ccccc1)C(=O)O)C(=O)N[C@H](C=O)CCCNC(=N)N [Antipain di-HCl] ({Phe-CO}-Arg-Val-Arg-aldehyde) | – | – | – | – | – | % Residual activity PIII, final conc. 1 ug/ml [2, 11]: 89.7%; % Residual activity PI & II, final conc. 1 ug/ml [3, 11]: 102.9% |
| Kallikrein | 8.6-8.8 | – | – | – | – | – |
| Elastase | 8.2-8.5 | – | – | – | – | – |
| Cc1ccc(S(=O)(=O)NC(Cc2ccccc2)C(=O)CCl)cc1 (stereo not drawn) [TPCK, tosylphenylalanine chloromethyl ketone] | – | – | – | – | – | effect of inhibitor on PIII [2]: inhibited; % Residual activity PIII, final conc. 1 mM ([2]; pH 2.8, 10 min preincubation): 21.2%; % Residual activity PI & II, final conc. 1 mM ([3]; pH 2.8, 10 min preincubation): 96.4% |
| [Mg+2] [Mg++] | – | 98.2% | 254.0 HU/ml | 98.5% | 211.4 HU/ml | – |
| [Co+2] [Co++] | – | 90.7% | 234.7 HU/ml | 96.9% | 208.0 HU/ml | – |
| [Zn+2] [Zn++] | – | 103.1% | 266.7 HU/ml | 90.4% | 194.0 HU/ml | – |
| [Ni+2] [Ni++] | – | 92.5% | 239.4 HU/ml | 96.0% | 206.0 HU/ml | – |
| Chymotrypsin | ~ 8.0 | – | – | – | – | – |
| NC(=O)CI [Iodoacetamide] | – | – | – | – | – | effect of inhibitor on PIII [2]: inhibited; % Residual activity PIII, final conc. 1 mM ([2]; pH 2.8, 10 min preincubation): 78.3%; % Residual activity PI & II, final conc. 1 mM ([3]; pH 2.8, 10 min preincubation): 98.9% |
| CCCC[C@H](NC(=O)C=[N+]=[N-])C(=O)OC [DNME, diazoacetylnorleucine methyl ester] | – | – | – | – | – | effect of inhibitor on PIII [2]: very sensitive; % Residual activity PIII, final conc. 1 mM ([2]; pH 2.8, 10 min preincubation): 64.9%; % Residual activity PI & II, final conc. 1 mM ([3]; pH 2.8, 10 min preincubation): 100.0%; effect of DNME on PI&II in the presence of cupric ions ([3]; with cupric ions, up to 4 hours of preincubation): not sensitive |
| [Cu+2] [Cu++] | – | 18.0% | 46.7 HU/ml | 95.7% | 205.4 HU/ml | effect of cupric ion on PIII at 1 mM ([4]; 1 mM cupric ion): Almost total inactivation; effect of metal ion on PIII [4]: very sensitive; effect of cupric ion on PI&II at or below 1 mM ([5]; at or below 1 mM cupric ion): not sensitive |
| Trypsin | ~ 8.0 | – | – | – | – | – |
| Porcine pepsin: two-time crystallized and lyophilized powder of porcine pepsin (Sigma Co.) | – | – | – | – | – | relative ratio of clotting to proteolytic activity, Casein [6]: 0.24; relative ratio of clotting to proteolytic activity, Hemoglobin [7]: 0.30; Linear regression X-Intercept (Table 17) ([8]; 1/tc vs C, equation 3-3): 0.0019; Linear regression Y-Intercept (Table 17) ([8]; 1/tc vs C, equation 3-3): -0.00013; Linear regression Slope (Table 17) ([8]; 1/tc vs C, equation 3-3, FIG. 7): 0.06597; Linear regression Slope (Table 16) ([8]; clotting time tc vs 1/C, equation 3-2): 16.5; milk clotting at pH 6.8 or above ([8]; milk pH 6.8 or above): unable to clot milk; Linear regression X-Intercept (Table 16) ([8]; tc vs 1/C, equation 3-2): 1.9; Linear regression Y-Intercept (Table 16) ([8]; tc vs 1/C, equation 3-2): -8.7; specification of the pepsin lot [9]: 2900 units/mg solid |
| O=C(O)CN(CCN(CC(=O)O)CC(=O)O)CC(=O)O [Na2 --EDTA] | – | – | – | – | – | optimum concentration for stabilizing P2.2, reagent alone [10]: 10 mM |

| Molecule | Optimum pH [1] | PIII % Retention [4] | PIII Activity (HU/ml) [4] | PI & II % Retention [5] | PI & II Activity (HU/ml) [5] | also measured |
| --- | --- | --- | --- | --- | --- | --- |
| [Pb+2] [Pb++] | – | 96.9% | 250.7 HU/ml | 99.7% | 214.0 HU/ml | effect of metal ion on PIII [4]: didn't inhibit; PIII activity detected, addition order of buffer and inhibitor solution reversed ([4]; reversed addition order): 20.7% |
| cathepsin L: thiol proteinase, liver | 5.0-5.5 | – | – | – | – | – |
| [Cd+2] [Cd++] | – | 96.4% | 249.4 HU/ml | 96.3% | 206.7 HU/ml | – |
| Pepsin | 1.7-2.0 | – | – | – | – | General proteolysis ([1]; Table 7, graded + to +++, literature): ++ + |
| Cl.N[C@@H](CS)C(=O)O [Cysteine-HCl] | – | – | – | – | – | optimum concentration for stabilizing P2.2, reagent alone [10]: 2.5 mM |
| [Ca+2] [Ca++] | – | 99.2% | 256.7 HU/ml | 97.5% | 209.4 HU/ml | – |
| [Sn+2] [Sn++] | – | 83.7% | 216.5 HU/ml | 88.8% | 190.6 HU/ml | effect of metal ion on PIII [4]: inhibits PIII slightly |
| CC(=O)N[C@@H](CC(C)C)C(=O)N[C@@H](CC(C)C)C(=O)N[C@H](C=O)CCCNC(=N)N [Leupeptin hemisulfate] | – | – | – | – | – | effect of inhibitor on PIII [2]: inhibited; % Residual activity PIII, final conc. 1 ug/ml [2, 11]: 33.4%; % Residual activity PI & II, final conc. 1 ug/ml [3, 11]: 96.5% |
| Cc1ccc(S(=O)(=O)NC(CCCCN)C(=O)CCl)cc1 (stereo not drawn) [TLCK, tosyllysine chloromethyl ketone] | – | – | – | – | – | effect of inhibitor on PIII [2]: inhibited; % Residual activity PIII, final conc. 1 mM ([2]; pH 2.8, 10 min preincubation): 16.8%; % Residual activity PI & II, final conc. 1 mM ([3]; pH 2.8, 10 min preincubation): 96.2% |
| [Hg+2] [Hg++] | – | 0.0% | 0.0 HU/ml | 87.1% | 187.0 HU/ml | effect of metal ion on PIII [4]: extremely sensitive |
| Cathepsin G | ~ 7.5 | – | – | – | – | – |
| CC(C)CC(=O)N[C@H](C(=O)N[C@H](C(=O)N[C@@H](CC(C)C)[C@@H](O)CC(=O)N[C@@H](C)C(=O)N[C@@H](CC(C)C)[C@@H](O)CC(=O)O)C(C)C)C(C)C [Pepstatin] (Isovaleryl-VV[Sta]A[Sta]-OH) | – | – | – | – | – | % Residual activity PIII, final conc. 1 ug/ml [2, 11]: 99.4%; effect of inhibitor on PI&II [3]: strongly inhibited; % Residual activity PI & II, final conc. 1 ug/ml [3, 11]: 25.0% |
| Poly-L-lysine | – | – | – | – | – | % Residual activity PIII, final conc. 1 ug/ml ([2]; pH 2.8): 101.1%; % Residual activity PI & II, final conc. 1 ug/ml ([3]; pH 2.8): 99.3% |
| Urokinase | 7.5-7.6 | – | – | – | – | – |
| Cathepsin D: mammalian carboxyl proteinase, literature comparator | 2.8-5.0 | – | – | – | – | Activators, mammalian cathepsins ([1]; Table 11, literature): none; Temperature optima, mammalian cathepsins ([1]; Table 11, literature): 45 °C; pH optima hemoglobin, mammalian cathepsins ([1]; Table 11, literature): 2.8-3.5; pH stability, mammalian cathepsins ([1]; unstable at pH > 7, literature): unstable |
| [Ag+] [Ag+] | – | 95.0% | 245.8 HU/ml | 102.2% | 219.3 HU/ml | – |
| B1 | 3.0 | – | – | – | – | – |
